For 4 molecules, TGI results are on record in PubChem BioAssay (NCI).

Assay in all cases: NCI anticancer screen, dose series, 48 h
For experiment [1], the system named is NCI-H23 lung.
In experiment [2] the test system is HCT-116 colon.
The subject of experiment [3] is U251 CNS.
Experiment [4] concerns SF-268 CNS.
For experiment [5], the system named is UACC-62 melanoma.
Experiment [6] relates to OVCAR-3 ovarian.
Experiment [7] concerns SN12C renal.
Experiment [8] deals with SK-MEL-28 melanoma.
The test system of experiment [9] is SK-MEL-2 melanoma.
Experiment [10] has as its system OVCAR-8 ovarian.
Experiment [11] has as its system K-562 leukemia.
Experiment [12] relates to A549 NSCLC.
Experiment [13] concerns UACC-257 melanoma.
Experiment [14] has as its system SNB-75 CNS.
For experiment [15], the system named is TK-10 renal.
Experiment [16] deals with COLO 205 colon.
Experiment [17] deals with SNB-19 CNS.
The subject of experiment [18] is RXF 393 renal.
Experiment [19] deals with HOP-62 NSCLC.
In experiment [20] the test system is SNB-78 CNS.

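Compound exposure: 48 hours, 5 concentrations, 96-well plates. At the TGI there is no net growth.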

As for `NC(CCOCCP(=O)(O)CCOCCC(N)C(=O)O)C(=O)O` (centres undefined), the TGI in experiment [1], in experiment [2], in [3], in experiment [4], in [5] and in experiment [6] was greater than 100 µM each time. Also, the TGI in experiment [7], in [8], in [9], in experiment [10], in experiment [11] and in experiment [12] was greater than 100 µM each time. The TGI in experiment [13], in experiment [14], in [15], in [16], in [17] and in [18] was greater than 100 µM each time.
For the molecule `O=C1OCc2cccc3c2-c2c1cccc2C(=O)OC3`, the TGI in experiment [1], in experiment [2], in experiment [3], in experiment [4], in experiment [19] and in [5] was greater than 100 µM in each case. Besides, the TGI in experiment [6], in experiment [20], in [8], in experiment [9], in experiment [10] and in experiment [11] was greater than 100 µM throughout. Further, the TGI in [15], in [16], in [17] and in experiment [18] was greater than 100 µM in each case.
In the case of `c1ccc(-c2nnc(-c3nsc4ccccc34)o2)cc1`, the TGI in [1], in experiment [2], in experiment [3], in [4], in experiment [19] and in experiment [5] was greater than 100 µM each time. Besides, the TGI in experiment [6], in experiment [7], in [20], in experiment [8], in experiment [9] and in [10] was greater than 100 µM throughout. Moreover, the TGI in experiment [11] was greater than 100 µM; in [12] it was greater than 100 µM; in [13], greater than 100 µM; in [14], 19.7 µM; in experiment [15], greater than 100 µM; in experiment [16], greater than 100 µM. Besides, the TGI in experiment [17] and in experiment [18] was greater than 100 µM in each case.
As for `O=C(O)C12CCCC(CCC1)C2`, the TGI in experiment [1], in experiment [2], in experiment [3], in [4], in experiment [19] and in experiment [5] was greater than 100 µM throughout. Also, the TGI in experiment [6], in experiment [7], in experiment [20], in experiment [8], in experiment [9] and in experiment [10] was greater than 100 µM in each case. Further, the TGI in [11], in experiment [12], in [13], in experiment [14], in experiment [15] and in experiment [16] was greater than 100 µM in each case. For the same molecule, the TGI in experiment [17] and in [18] was greater than 100 µM in each case.
